Results: patent US20230357363A1, “PROTEIN DOUBLE-SHELL NANOSTRUCTURES AND THEIR USE” (The Board of Trustees of the Leland Stanford Junior …, priority 2020, published 2023)

Tested on: BODIPY-conjugated pKID domain of CREB protein
Assay: Fluorescence polarization assay of MBP-KIX-apoferritin with BODIPY-conjugated pKID
Format: binding
Settings: FP assay, protein titrated against BODIPY-pKID, read 30 minutes after mixing
Description: FIGS. 1A-1D. The design of double-shell system. FIG. 1A. The double shell system is shown by cartoon with apoferritin as inner cage, MBP as outer cage, and small cargo proteins in the middle portion. FIG. 1B. Strategy of plasmid construction. The cargo protein KIX C-terminus is fused to the apoferritin N-terminus with the C-terminal 668-672 residues of KIX and N-terminal 1-5 residues of apoferritin truncated for stability. Several mutations (shown as lightning) were also incorporated on the interface between KIX and apoferritin to enhance stability. The MBP tag is fused to the KIX N-terminus. FIG. 1C. Design of mutations that stabilize the KIX domain of CBP on the apoferritin complex. […] Fluorescence polarization assay using the BODIPY-conjugated phosphorylated KID domain of CREB and KIX, MBP-KIX-apoferritin construct 3, or MBP-apoferritin. […]
Fluorescence polarization (FP) using the MBP-KIX-apoferritin and the BODIPY-conjugated phosphorylated pKID domain of CREB was performed as described previously^16. […] Phosphorylation efficiency of pKID, which was assessed using a SDS-gel containing Phos-tag™ Acrylamide (FUJIFILM), was almost 100%. pKID was purified using the phosphoprotein enrichment kit (Takara). […] Molar concentration of KIX, MBP-KIX-apoferritin construct 3, and MBP-apoferritin was calculated as a monomer. FP was measured 30 minutes after mixing using INFINITE M1000 PRO (TECAN). […]

binding affinity of KIX for the BODIPY-conjugated pKID domain of CREB (function of KIX in the 24-mer complex): still maintained its function
Substance: MKF: 24-mer MBP-KIX-apoferritin fusion protein double-shell nanostructure from construct 3 (T27C, A31C, E169C, C177S, E237C)
